Source: patent US20160367623A1, “AGONISTS OF GUANYLATE CYCLASE USEFUL FOR THE TREATMENT OF GASTROINTESTINAL DISORDERS, INFLAMMATION, CANCER AND OTHER DISORDERS” (priority 2015, published 2016)
Bridge positions count the residues as written; N and C are the ends. Ends that are not written are not given here.

Tested on: patients with chronic idiopathic constipation (CIC)
Assay: Second phase 3 CIC trial: change from baseline in CSBMs/week
Format: in vivo, human
[1] = Post-Treatment Week 13, 3 mg, ITT Population, MRA
[2] = Post-Treatment Week 13, 3 mg, ITT Population-Excluding Duplicate Patients, MRA
[3] = Post-Treatment Week 13, 6 mg, ITT Population, MRA
[4] = Post-Treatment Week 13, 6 mg, ITT Population-Excluding Duplicate Patients, MRA
[5] = Post-Treatment Week 14, 3 mg, ITT Population, MRA
[6] = Post-Treatment Week 14, 3 mg, ITT Population-Excluding Duplicate Patients, MRA
[7] = Post-Treatment Week 14, 6 mg, ITT Population, MRA
[8] = Post-Treatment Week 14, 6 mg, ITT Population-Excluding Duplicate Patients, MRA
[9] = Week 1, 3 mg, ITT Population, MRA
[10] = Week 1, 3 mg, ITT Population-Excluding Duplicate Patients, MRA
[11] = Week 1, 6 mg, ITT Population, MRA
[12] = Week 1, 6 mg, ITT Population-Excluding Duplicate Patients, MRA
[13] = Week 2, 3 mg, ITT Population, MRA
[14] = Week 2, 3 mg, ITT Population-Excluding Duplicate Patients, MRA
[15] = Week 2, 6 mg, ITT Population, MRA
[16] = Week 2, 6 mg, ITT Population-Excluding Duplicate Patients, MRA
[17] = Week 3, 3 mg, ITT Population, MRA
[18] = Week 3, 3 mg, ITT Population-Excluding Duplicate Patients, MRA
[19] = Week 3, 6 mg, ITT Population, MRA

## Asn^1-Asp^2-Glu^3-Cys^4-Glu^5-Leu^6-Cys^7-Val^8-Asn^9-Val^10-Ala^11-Cys^12-Thr^13-Gly^14-Cys^15-Leu^16 (NDECELCVNVACTGCL; disulfide 4-12, 7-15) [Plecanatide, uroguanylin analogue, guanylate cyclase-C agonist; (C4:C12, C7:C15) bicycle peptide]
6 mg, overall average estimate across the 12-week treatment period, All Randomized (includes Duplicate Patients)
  Change from Baseline in CSBMs, LS Mean (SE): 2.14 (0.129) CSBMs/week
Active Combined, Post-Treatment Week 13, All Randomized (includes Duplicate Patients)
  Change from Baseline in CSBMs, Mean (SD): 1.73 (2.552) CSBMs/week
Active Combined, Post-Treatment Week 14, All Randomized (includes Duplicate Patients)
  Change from Baseline in CSBMs, Mean (SD): 1.69 (2.591) CSBMs/week
Active Combined, Week 1, All Randomized (includes Duplicate Patients)
  Change from Baseline in CSBMs, Mean (SD): 1.73 (2.803) CSBMs/week
Active Combined, Week 2, All Randomized (includes Duplicate Patients)
  Change from Baseline in CSBMs, Mean (SD): 1.83 (3.037) CSBMs/week
Active Combined, Week 3, All Randomized (includes Duplicate Patients)
  Change from Baseline in CSBMs, Mean (SD): 1.89 (3.005) CSBMs/week
[1]
  Change from Baseline in CSBMs, Difference from Placebo: 0.43 CSBMs/week
  Change from Baseline in CSBMs, LS Mean (SE): 1.94 (0.134) CSBMs/week
  Change from Baseline in CSBMs, Mean (SD): 1.88 (2.733) CSBMs/week
[2]
  Change from Baseline in CSBMs, Difference from Placebo: 0.46 CSBMs/week
  Change from Baseline in CSBMs, LS Mean (SE): 1.96 (0.135) CSBMs/week
  Change from Baseline in CSBMs, Mean (SD): 1.90 (2.743) CSBMs/week
[3]
  Change from Baseline in CSBMs, Difference from Placebo: 0.20 CSBMs/week
  Change from Baseline in CSBMs, LS Mean (SE): 1.70 (0.134) CSBMs/week
  Change from Baseline in CSBMs, Mean (SD): 1.64 (2.393) CSBMs/week
[4]
  Change from Baseline in CSBMs, Difference from Placebo: 0.18 CSBMs/week
  Change from Baseline in CSBMs, LS Mean (SE): 1.69 (0.133) CSBMs/week
  Change from Baseline in CSBMs, Mean (SD): 1.62 (2.339) CSBMs/week
Post-Treatment Week 13, Active Combined, ITT Population-Excluding Duplicate Patients, MRA
  Change from Baseline in CSBMs, Mean (SD): 1.76 (2.547) CSBMs/week
Post-Treatment Week 13, Active Combined, ITT Population, MRA
  Change from Baseline in CSBMs, Mean (SD): 1.76 (2.567) CSBMs/week
[5]
  Change from Baseline in CSBMs, Difference from Placebo: 0.43 CSBMs/week
  Change from Baseline in CSBMs, LS Mean (SE): 1.82 (0.136) CSBMs/week
  Change from Baseline in CSBMs, Mean (SD): 1.78 (2.620) CSBMs/week
[6]
  Change from Baseline in CSBMs, Difference from Placebo: 0.43 CSBMs/week
  Change from Baseline in CSBMs, LS Mean (SE): 1.83 (0.137) CSBMs/week
  Change from Baseline in CSBMs, Mean (SD): 1.78 (2.628) CSBMs/week
[7]
  Change from Baseline in CSBMs, Difference from Placebo: 0.34 CSBMs/week
  Change from Baseline in CSBMs, LS Mean (SE): 1.73 (0.137) CSBMs/week
  Change from Baseline in CSBMs, Mean (SD): 1.67 (2.616) CSBMs/week
[8]
  Change from Baseline in CSBMs, Difference from Placebo: 0.31 CSBMs/week
  Change from Baseline in CSBMs, LS Mean (SE): 1.71 (0.136) CSBMs/week
  Change from Baseline in CSBMs, Mean (SD): 1.64 (2.536) CSBMs/week
Post-Treatment Week 14, Active Combined, ITT Population-Excluding Duplicate Patients, MRA
  Change from Baseline in CSBMs, Mean (SD): 1.71 (2.582) CSBMs/week
Post-Treatment Week 14, Active Combined, ITT Population, MRA
  Change from Baseline in CSBMs, Mean (SD): 1.72 (2.616) CSBMs/week
[9]
  Change from Baseline in CSBMs, Difference from Placebo: 0.88 CSBMs/week
  Change from Baseline in CSBMs, LS Mean (SE): 1.72 (0.153) CSBMs/week
  Change from Baseline in CSBMs, Mean (SD): 1.75 (2.732) CSBMs/week
[10]
  Change from Baseline in CSBMs, Difference from Placebo: 0.88 CSBMs/week
  Change from Baseline in CSBMs, LS Mean (SE): 1.75 (0.155) CSBMs/week
  Change from Baseline in CSBMs, Mean (SD): 1.78 (2.752) CSBMs/week
[11]
  Change from Baseline in CSBMs, Difference from Placebo: 0.88 CSBMs/week
  Change from Baseline in CSBMs, LS Mean (SE): 1.71 (0.151) CSBMs/week
  Change from Baseline in CSBMs, Mean (SD): 1.72 (2.897) CSBMs/week
[12]
  Change from Baseline in CSBMs, Difference from Placebo: 0.87 CSBMs/week
  Change from Baseline in CSBMs, LS Mean (SE): 1.74 (0.153) CSBMs/week
  Change from Baseline in CSBMs, Mean (SD): 1.74 (2.911) CSBMs/week
Week 1, Active Combined, ITT Population-Excluding Duplicate Patients, MRA
  Change from Baseline in CSBMs, Mean (SD): 1.76 (2.832) CSBMs/week
Week 1, Active Combined, ITT Population, MRA
  Change from Baseline in CSBMs, Mean (SD): 1.74 (2.815) CSBMs/week
[13]
  Change from Baseline in CSBMs, Difference from Placebo: 0.86 CSBMs/week
  Change from Baseline in CSBMs, LS Mean (SE): 1.82 (0.153) CSBMs/week
  Change from Baseline in CSBMs, Mean (SD): 1.81 (2.963) CSBMs/week
[14]
  Change from Baseline in CSBMs, Difference from Placebo: 0.85 CSBMs/week
  Change from Baseline in CSBMs, LS Mean (SE): 1.84 (0.155) CSBMs/week
  Change from Baseline in CSBMs, Mean (SD): 1.82 (2.986) CSBMs/week
[15]
  Change from Baseline in CSBMs, Difference from Placebo: 0.85 CSBMs/week
  Change from Baseline in CSBMs, LS Mean (SE): 1.81 (0.152) CSBMs/week
  Change from Baseline in CSBMs, Mean (SD): 1.84 (3.158) CSBMs/week
[16]
  Change from Baseline in CSBMs, Difference from Placebo: 0.85 CSBMs/week
  Change from Baseline in CSBMs, LS Mean (SE): 1.84 (0.154) CSBMs/week
  Change from Baseline in CSBMs, Mean (SD): 1.85 (3.171) CSBMs/week
Week 2, Active Combined, ITT Population-Excluding Duplicate Patients, MRA
  Change from Baseline in CSBMs, Mean (SD): 1.84 (3.079) CSBMs/week
Week 2, Active Combined, ITT Population, MRA
  Change from Baseline in CSBMs, Mean (SD): 1.82 (3.061) CSBMs/week
[17]
  Change from Baseline in CSBMs, Difference from Placebo: 0.74 CSBMs/week
  Change from Baseline in CSBMs, LS Mean (SE): 1.94 (0.153) CSBMs/week
  Change from Baseline in CSBMs, Mean (SD): 1.94 (3.117) CSBMs/week
[18]
  Change from Baseline in CSBMs, Difference from Placebo: 0.74 CSBMs/week
  Change from Baseline in CSBMs, LS Mean (SE): 1.96 (0.156) CSBMs/week
  Change from Baseline in CSBMs, Mean (SD): 1.95 (3.143) CSBMs/week
[19]
  Change from Baseline in CSBMs, Difference from Placebo: 0.61 CSBMs/week
  Change from Baseline in CSBMs, LS Mean (SE): 1.81 (0.152) CSBMs/week
